Laboratory results from ChEMBL document CHEMBL1143296, “Thienopyrimidine-based dual EGFR/ErbB-2 inhibitors” (Bioorg Med Chem Lett, 2009).

These compounds were tested on BT-474 (assay: Antiproliferative activity against human BT474 cells expressing ErbB2 after 72 hrs by CTG assay). Conditions: BT-474, 72 h.

Row | Compound | IC50
1 | CN(C)Cc1ccc(-c2cc3ncnc(Nc4ccc(OCc5cccc(F)c5)c(Cl)c4)c3s2)o1 | 1880 nM
2 | CS(=O)(=O)CCNCc1ccc(-c2cc3c(Nc4ccc(OCc5cccc(F)c5)c(Cl)c4)ncnc3s2)o1 | 420 nM
3 | Fc1cccc(COc2ccc(Nc3ncnc4cc(-c5cccs5)sc34)cc2Cl)c1 | 5770 nM
4 | Fc1cccc(COc2ccc(Nc3ncnc4cc(-c5ccco5)sc34)cc2Cl)c1 | 21200 nM
5 | CS(=O)(=O)CCNCc1ccc(-c2cc3ncnc(Nc4ccc(OCc5cccc(F)c5)c(Cl)c4)c3s2)[nH]1 | 630 nM
6 | CS(=O)(=O)CCNCc1ccc(-c2cc3ncnc(Nc4ccc(OCc5cccc(F)c5)c(Cl)c4)c3s2)o1 | 420 nM
7 | Fc1cccc(COc2ccc(Nc3ncnc4sc(-c5cccs5)cc34)cc2Cl)c1 [GW684626B] | 3220 nM
8 | Fc1cccc(COc2ccc(Nc3ncnc4sc(-c5ccco5)cc34)cc2Cl)c1 [GSK-969786A] | > 30000 nM

The compounds below were run against T1, Receptor tyrosine-protein kinase erbB-2 (Homo sapiens, UniProt P04626). Conditions: not given.
T1 sequence (P04626 whole entry): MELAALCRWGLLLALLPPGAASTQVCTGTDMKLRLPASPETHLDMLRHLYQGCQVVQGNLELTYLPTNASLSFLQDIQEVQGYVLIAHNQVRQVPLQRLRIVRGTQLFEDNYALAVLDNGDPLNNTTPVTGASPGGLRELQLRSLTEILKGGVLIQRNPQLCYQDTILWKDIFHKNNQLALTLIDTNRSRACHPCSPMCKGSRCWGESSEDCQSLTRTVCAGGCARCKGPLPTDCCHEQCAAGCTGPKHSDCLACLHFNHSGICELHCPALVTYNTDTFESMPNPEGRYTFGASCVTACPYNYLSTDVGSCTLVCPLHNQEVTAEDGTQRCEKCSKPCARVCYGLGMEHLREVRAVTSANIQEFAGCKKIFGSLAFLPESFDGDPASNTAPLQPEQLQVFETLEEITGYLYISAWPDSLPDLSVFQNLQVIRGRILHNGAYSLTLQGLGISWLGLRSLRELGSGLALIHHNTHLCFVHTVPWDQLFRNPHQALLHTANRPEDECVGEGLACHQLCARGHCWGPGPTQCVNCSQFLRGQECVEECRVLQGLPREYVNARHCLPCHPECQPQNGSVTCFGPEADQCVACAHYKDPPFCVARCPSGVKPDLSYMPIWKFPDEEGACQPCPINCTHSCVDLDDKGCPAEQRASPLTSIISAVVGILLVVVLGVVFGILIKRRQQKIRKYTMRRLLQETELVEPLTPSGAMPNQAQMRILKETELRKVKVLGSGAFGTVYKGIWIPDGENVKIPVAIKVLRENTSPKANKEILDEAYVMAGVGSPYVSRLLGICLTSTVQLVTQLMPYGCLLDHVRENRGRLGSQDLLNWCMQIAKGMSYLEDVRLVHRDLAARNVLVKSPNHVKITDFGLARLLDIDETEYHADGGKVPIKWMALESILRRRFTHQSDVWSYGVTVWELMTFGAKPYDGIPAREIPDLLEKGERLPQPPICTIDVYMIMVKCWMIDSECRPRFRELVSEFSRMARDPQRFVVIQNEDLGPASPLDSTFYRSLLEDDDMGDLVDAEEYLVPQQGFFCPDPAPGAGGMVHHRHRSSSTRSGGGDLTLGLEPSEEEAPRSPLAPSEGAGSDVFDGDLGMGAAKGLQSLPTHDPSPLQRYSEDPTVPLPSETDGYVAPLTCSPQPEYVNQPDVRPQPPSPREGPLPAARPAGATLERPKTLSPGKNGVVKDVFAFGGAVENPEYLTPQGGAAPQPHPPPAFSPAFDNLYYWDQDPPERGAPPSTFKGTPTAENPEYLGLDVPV

Row | Compound | IC50
9 | CN(C)Cc1ccc(-c2cc3ncnc(Nc4ccc(OCc5cccc(F)c5)c(Cl)c4)c3s2)o1 | 146 nM
10 | CS(=O)(=O)CCNCc1ccc(-c2cc3c(Nc4ccc(OCc5cccc(F)c5)c(Cl)c4)ncnc3s2)o1 | 6 nM
11 | Fc1cccc(COc2ccc(Nc3ncnc4cc(-c5ccc[nH]5)sc34)cc2Cl)c1 | 121 nM
12 | Fc1cccc(COc2ccc(Nc3ncnc4cc(-c5cccs5)sc34)cc2Cl)c1 | 113 nM
13 | OCc1ccc(-c2cc3ncnc(Nc4ccc(OCc5cccc(F)c5)c(Cl)c4)c3s2)o1 | 122 nM
14 | CS(=O)(=O)CCNCc1ccc(-c2cc3c(Nc4ccc(OCc5cccc(F)c5)c(Cl)c4)ncnc3s2)s1 | 95 nM
15 | CN(C)Cc1ccc(-c2cc3c(Nc4ccc(OCc5cccc(F)c5)c(Cl)c4)ncnc3s2)[nH]1 | 246 nM
16 | CS(=O)(=O)CCNCc1ccc(-c2cc3c(Nc4ccc(OCc5cccc(F)c5)c(Cl)c4)ncnc3s2)[nH]1 | 153 nM
17 | CS(=O)(=O)CCNCc1cc(-c2cc3ncnc(Nc4ccc(OCc5cccc(F)c5)c(Cl)c4)c3s2)cs1 | 31 nM
18 | CN(C)Cc1ccc(-c2cc3ncnc(Nc4ccc(OCc5cccc(F)c5)c(Cl)c4)c3s2)[nH]1 | 76 nM
19 | Fc1cccc(COc2ccc(Nc3ncnc4cc(-c5ccco5)sc34)cc2Cl)c1 | 709 nM
20 | Fc1cccc(COc2ccc(Nc3ncnc4sc(-c5ccc[nH]5)cc34)cc2Cl)c1 | 203 nM
21 | Fc1cccc(COc2ccc(Nc3ncnc4sc(-c5ccc(CNCc6ccccc6)o5)cc34)cc2Cl)c1 | 898 nM
22 | CS(=O)(=O)CCNCc1ccc(-c2cc3ncnc(Nc4ccc(OCc5cccc(F)c5)c(Cl)c4)c3s2)[nH]1 | 113 nM
23 | CCNCc1ccc(-c2cc3c(Nc4ccc(OCc5cccc(F)c5)c(Cl)c4)ncnc3s2)[nH]1 | 111 nM
24 | CCNCc1ccc(-c2cc3ncnc(Nc4ccc(OCc5cccc(F)c5)c(Cl)c4)c3s2)[nH]1 | 68 nM
25 | CS(=O)(=O)CCNCc1cc(-c2cc3c(Nc4ccc(OCc5cccc(F)c5)c(Cl)c4)ncnc3s2)cs1 [GSK-300014A] | 299 nM
26 | CS(=O)(=O)CCNCc1ccc(-c2cc3ncnc(Nc4ccc(OCc5cccc(F)c5)c(Cl)c4)c3s2)o1 | 71 nM
27 | Fc1cccc(COc2ccc(Nc3ncnc4sc(-c5cccs5)cc34)cc2Cl)c1 [GW684626B] | 43 nM
28 | CN1CCN(Cc2ccc(-c3cc4ncnc(Nc5ccc(OCc6cccc(F)c6)c(Cl)c5)c4s3)o2)CC1 [GW784684X] | 250 nM
29 | Fc1cccc(COc2ccc(Nc3ncnc4sc(-c5ccco5)cc34)cc2Cl)c1 [GSK-969786A] | 14 nM
30 | N#CCNCc1ccc(-c2cc3ncnc(Nc4ccc(OCc5cccc(F)c5)c(Cl)c4)c3s2)o1 | 68 nM

What follows are compounds tested on HFF (assay: Antiproliferative activity against HFF after 72 hrs by CTG assay). Conditions: Homo sapiens.

Row | Compound | IC50
31 | CN(C)Cc1ccc(-c2cc3ncnc(Nc4ccc(OCc5cccc(F)c5)c(Cl)c4)c3s2)o1 | 4460 nM
32 | CS(=O)(=O)CCNCc1ccc(-c2cc3c(Nc4ccc(OCc5cccc(F)c5)c(Cl)c4)ncnc3s2)o1 | 19500 nM
33 | Fc1cccc(COc2ccc(Nc3ncnc4cc(-c5cccs5)sc34)cc2Cl)c1 | 10700 nM
34 | Fc1cccc(COc2ccc(Nc3ncnc4cc(-c5ccco5)sc34)cc2Cl)c1 | > 30000 nM
35 | CS(=O)(=O)CCNCc1ccc(-c2cc3ncnc(Nc4ccc(OCc5cccc(F)c5)c(Cl)c4)c3s2)[nH]1 | 3730 nM
36 | CS(=O)(=O)CCNCc1ccc(-c2cc3ncnc(Nc4ccc(OCc5cccc(F)c5)c(Cl)c4)c3s2)o1 | > 30000 nM
37 | Fc1cccc(COc2ccc(Nc3ncnc4sc(-c5cccs5)cc34)cc2Cl)c1 [GW684626B] | 9720 nM
38 | Fc1cccc(COc2ccc(Nc3ncnc4sc(-c5ccco5)cc34)cc2Cl)c1 [GSK-969786A] | > 30000 nM

The compounds below were run on HFF (assay: Antiproliferative activity against HFF after 72 hrs by MEB assay). Conditions: Homo sapiens.

Row | Compound | IC50
39 | Fc1cccc(COc2ccc(Nc3ncnc4cc(-c5ccc[nH]5)sc34)cc2Cl)c1 | 2370 nM
40 | OCc1ccc(-c2cc3ncnc(Nc4ccc(OCc5cccc(F)c5)c(Cl)c4)c3s2)o1 | 9390 nM
41 | CS(=O)(=O)CCNCc1cc(-c2cc3ncnc(Nc4ccc(OCc5cccc(F)c5)c(Cl)c4)c3s2)co1 | 7950 nM
42 | CS(=O)(=O)CCNCc1cc(-c2cc3ncnc(Nc4ccc(OCc5cccc(F)c5)c(Cl)c4)c3s2)cs1 | > 30000 nM
43 | Fc1cccc(COc2ccc(Nc3ncnc4sc(-c5ccc[nH]5)cc34)cc2Cl)c1 | > 3000 nM

What follows are compounds tested against T1, Receptor tyrosine-protein kinase erbB-2 (assay: Inhibition of ErbB2 intracellular autophosphorylation of ErbB2 in human BT474 cells by DELFIA assay). Conditions: not given.
Format: cell-based, BT-474

Row | Compound | IC50
44 | Fc1cccc(COc2ccc(Nc3ncnc4cc(-c5ccc[nH]5)sc34)cc2Cl)c1 | 826 nM
45 | CS(=O)(=O)CCNCc1ccc(-c2cc3ncnc(Nc4ccc(OCc5cccc(F)c5)c(Cl)c4)c3s2)[nH]1 | 431 nM

What follows are compounds tested against Epidermal growth factor receptor (Homo sapiens, UniProt P00533). Conditions: not given.
Epidermal growth factor receptor, sequence (P00533 whole entry): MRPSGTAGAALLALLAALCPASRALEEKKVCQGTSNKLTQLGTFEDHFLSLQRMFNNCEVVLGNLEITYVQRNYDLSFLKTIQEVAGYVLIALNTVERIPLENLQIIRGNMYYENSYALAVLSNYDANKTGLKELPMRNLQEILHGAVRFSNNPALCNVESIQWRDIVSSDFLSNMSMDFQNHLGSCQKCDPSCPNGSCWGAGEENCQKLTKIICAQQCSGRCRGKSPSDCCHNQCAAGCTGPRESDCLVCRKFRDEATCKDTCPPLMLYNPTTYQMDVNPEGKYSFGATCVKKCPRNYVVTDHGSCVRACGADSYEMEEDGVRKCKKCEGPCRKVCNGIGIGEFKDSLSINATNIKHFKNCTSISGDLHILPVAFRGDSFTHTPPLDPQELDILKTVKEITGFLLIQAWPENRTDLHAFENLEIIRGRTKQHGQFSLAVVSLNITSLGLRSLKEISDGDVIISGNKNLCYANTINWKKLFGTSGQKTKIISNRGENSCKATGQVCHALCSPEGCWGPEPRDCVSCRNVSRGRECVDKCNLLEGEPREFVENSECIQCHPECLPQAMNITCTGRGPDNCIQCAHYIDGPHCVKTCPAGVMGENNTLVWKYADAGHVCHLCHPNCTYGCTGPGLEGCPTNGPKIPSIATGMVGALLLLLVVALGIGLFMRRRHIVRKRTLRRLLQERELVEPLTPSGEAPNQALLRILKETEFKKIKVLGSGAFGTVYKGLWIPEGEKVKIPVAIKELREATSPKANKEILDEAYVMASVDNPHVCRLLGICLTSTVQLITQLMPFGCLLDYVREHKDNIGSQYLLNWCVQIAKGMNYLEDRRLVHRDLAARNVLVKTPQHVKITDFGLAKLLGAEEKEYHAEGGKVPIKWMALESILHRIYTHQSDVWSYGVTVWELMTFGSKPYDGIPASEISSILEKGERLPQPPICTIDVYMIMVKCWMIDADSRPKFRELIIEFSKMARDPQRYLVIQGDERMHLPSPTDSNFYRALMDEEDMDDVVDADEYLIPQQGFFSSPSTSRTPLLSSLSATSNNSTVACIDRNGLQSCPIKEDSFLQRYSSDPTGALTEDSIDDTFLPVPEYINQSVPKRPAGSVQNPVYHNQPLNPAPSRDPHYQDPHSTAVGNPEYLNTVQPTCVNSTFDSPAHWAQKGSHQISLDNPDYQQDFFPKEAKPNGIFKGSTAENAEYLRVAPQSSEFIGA

Row | Compound | IC50
46 | CN(C)Cc1ccc(-c2cc3ncnc(Nc4ccc(OCc5cccc(F)c5)c(Cl)c4)c3s2)o1 | 2 nM
47 | CS(=O)(=O)CCNCc1ccc(-c2cc3c(Nc4ccc(OCc5cccc(F)c5)c(Cl)c4)ncnc3s2)o1 | 12 nM
48 | Fc1cccc(COc2ccc(Nc3ncnc4cc(-c5ccc[nH]5)sc34)cc2Cl)c1 | 68 nM
49 | Fc1cccc(COc2ccc(Nc3ncnc4cc(-c5cccs5)sc34)cc2Cl)c1 | 8 nM
50 | OCc1ccc(-c2cc3ncnc(Nc4ccc(OCc5cccc(F)c5)c(Cl)c4)c3s2)o1 | 3 nM
51 | CS(=O)(=O)CCNCc1ccc(-c2cc3c(Nc4ccc(OCc5cccc(F)c5)c(Cl)c4)ncnc3s2)s1 | 96 nM
52 | CN(C)Cc1ccc(-c2cc3c(Nc4ccc(OCc5cccc(F)c5)c(Cl)c4)ncnc3s2)[nH]1 | 68 nM
53 | CS(=O)(=O)CCNCc1ccc(-c2cc3c(Nc4ccc(OCc5cccc(F)c5)c(Cl)c4)ncnc3s2)[nH]1 | 138 nM
54 | CS(=O)(=O)CCNCc1cc(-c2cc3ncnc(Nc4ccc(OCc5cccc(F)c5)c(Cl)c4)c3s2)cs1 | 3 nM
55 | CN(C)Cc1ccc(-c2cc3ncnc(Nc4ccc(OCc5cccc(F)c5)c(Cl)c4)c3s2)[nH]1 | 4 nM
56 | Fc1cccc(COc2ccc(Nc3ncnc4cc(-c5ccco5)sc34)cc2Cl)c1 | 10 nM
57 | Fc1cccc(COc2ccc(Nc3ncnc4sc(-c5ccc[nH]5)cc34)cc2Cl)c1 | 115 nM
58 | Fc1cccc(COc2ccc(Nc3ncnc4sc(-c5ccc(CNCc6ccccc6)o5)cc34)cc2Cl)c1 | 54 nM
59 | CS(=O)(=O)CCNCc1ccc(-c2cc3ncnc(Nc4ccc(OCc5cccc(F)c5)c(Cl)c4)c3s2)[nH]1 | 7 nM
60 | CCNCc1ccc(-c2cc3c(Nc4ccc(OCc5cccc(F)c5)c(Cl)c4)ncnc3s2)[nH]1 | 121 nM
61 | CCNCc1ccc(-c2cc3ncnc(Nc4ccc(OCc5cccc(F)c5)c(Cl)c4)c3s2)[nH]1 | 6 nM
62 | CS(=O)(=O)CCNCc1cc(-c2cc3c(Nc4ccc(OCc5cccc(F)c5)c(Cl)c4)ncnc3s2)cs1 [GSK-300014A] | 304 nM
63 | CS(=O)(=O)CCNCc1ccc(-c2cc3ncnc(Nc4ccc(OCc5cccc(F)c5)c(Cl)c4)c3s2)o1 | 1 nM
64 | Fc1cccc(COc2ccc(Nc3ncnc4sc(-c5cccs5)cc34)cc2Cl)c1 [GW684626B] | 9 nM
65 | CN1CCN(Cc2ccc(-c3cc4ncnc(Nc5ccc(OCc6cccc(F)c6)c(Cl)c5)c4s3)o2)CC1 [GW784684X] | 5 nM
66 | Fc1cccc(COc2ccc(Nc3ncnc4sc(-c5ccco5)cc34)cc2Cl)c1 [GSK-969786A] | 15 nM

These compounds were tested on HN5 (assay: Antiproliferative activity against human HN5 cells expressing EGFR by MEB assay). Conditions: not given.

Row | Compound | IC50
67 | Fc1cccc(COc2ccc(Nc3ncnc4cc(-c5ccc[nH]5)sc34)cc2Cl)c1 | 570 nM
68 | OCc1ccc(-c2cc3ncnc(Nc4ccc(OCc5cccc(F)c5)c(Cl)c4)c3s2)o1 | 100 nM
69 | CS(=O)(=O)CCNCc1cc(-c2cc3ncnc(Nc4ccc(OCc5cccc(F)c5)c(Cl)c4)c3s2)cs1 | 100 nM
70 | Fc1cccc(COc2ccc(Nc3ncnc4sc(-c5ccc[nH]5)cc34)cc2Cl)c1 | 2710 nM

Each compound was assayed on BT-474 (assay: Antiproliferative activity against human BT474 cells expressing ErbB2 by MEB assay). Conditions: not given.

Row | Compound | IC50
71 | Fc1cccc(COc2ccc(Nc3ncnc4cc(-c5ccc[nH]5)sc34)cc2Cl)c1 | 540 nM
72 | OCc1ccc(-c2cc3ncnc(Nc4ccc(OCc5cccc(F)c5)c(Cl)c4)c3s2)o1 | 720 nM
73 | CS(=O)(=O)CCNCc1cc(-c2cc3ncnc(Nc4ccc(OCc5cccc(F)c5)c(Cl)c4)c3s2)co1 | 730 nM
74 | CS(=O)(=O)CCNCc1cc(-c2cc3ncnc(Nc4ccc(OCc5cccc(F)c5)c(Cl)c4)c3s2)cs1 | 600 nM
75 | Fc1cccc(COc2ccc(Nc3ncnc4sc(-c5ccc[nH]5)cc34)cc2Cl)c1 | 1980 nM
76 | CS(=O)(=O)CCNCc1ccc(-c2ccc3ncnc(Nc4ccc(OCc5cccc(F)c5)c(Cl)c4)c3c2)o1 [LAPATINIB DITOSYLATE] | 100 nM

What follows are compounds tested on HN5 (assay: Antiproliferative activity against human HN5 cells expressing EGFR after 72 hrs by CTG assay). Conditions: HN5, 72 h.

Row | Compound | IC50
77 | CN(C)Cc1ccc(-c2cc3ncnc(Nc4ccc(OCc5cccc(F)c5)c(Cl)c4)c3s2)o1 | 1220 nM
78 | CS(=O)(=O)CCNCc1ccc(-c2cc3c(Nc4ccc(OCc5cccc(F)c5)c(Cl)c4)ncnc3s2)o1 | 420 nM
79 | Fc1cccc(COc2ccc(Nc3ncnc4cc(-c5cccs5)sc34)cc2Cl)c1 | 2190 nM
80 | Fc1cccc(COc2ccc(Nc3ncnc4cc(-c5ccco5)sc34)cc2Cl)c1 | 8090 nM
81 | CS(=O)(=O)CCNCc1ccc(-c2cc3ncnc(Nc4ccc(OCc5cccc(F)c5)c(Cl)c4)c3s2)[nH]1 | 770 nM
82 | CS(=O)(=O)CCNCc1ccc(-c2cc3ncnc(Nc4ccc(OCc5cccc(F)c5)c(Cl)c4)c3s2)o1 | 410 nM
83 | Fc1cccc(COc2ccc(Nc3ncnc4sc(-c5cccs5)cc34)cc2Cl)c1 [GW684626B] | 10100 nM
84 | Fc1cccc(COc2ccc(Nc3ncnc4sc(-c5ccco5)cc34)cc2Cl)c1 [GSK-969786A] | > 30000 nM
